Positions of bridges follow the written chain, without caps; N, C: chain ends. Non-standard residues stand in square brackets, D forms with d. Residues, ends and D or L forms follow the SMILES beside them. *: point of attachment. hPhe(3-Cl-4-CF3) = N[C@@H](CCc1ccc(C(F)(F)F)c(Cl)c1)C(=O)O; hPhe(3-F,4-CF3) = N[C@@H](CCc1ccc(C(F)(F)F)c(F)c1)C(=O)O; NMePhe(4-CF3) = CN[C@@H](Cc1ccc(C(F)(F)F)cc1)C(=O)O; hPhe(4-CF3) = N[C@@H](CCc1ccc(C(F)(F)F)cc1)C(=O)O; NMePhe(4-Me) = CN[C@@H](Cc1ccc(C)cc1)C(=O)O; NMeNle(6-CHF2) = CN[C@@H](CCCCC(F)F)C(=O)O; NMeGly(cPent) = CN[C@H](C(=O)O)C1CCCC1; Pro(4,4-F2) = O=C(O)[C@@H]1CC(F)(F)CN1; NMeCha = CN[C@@H](CC1CCCCC1)C(=O)O; NMeD = CN[C@@H](CC(=O)O)C(=O)O; CH2CONHtBu = CC(C)(C)NC(=O)C*; NMeL = CN[C@@H](CC(C)C)C(=O)O; Chg = N[C@H](C(=O)O)C1CCCCC1; NMeNle = CCCC[C@H](NC)C(=O)O; NMeV = CN[C@H](C(=O)O)C(C)C; d(β3hA) = C[C@@H](N)CC(=O)O; NMeS = CN[C@@H](CO)C(=O)O; NMeA = CN[C@@H](C)C(=O)O; Piperidide = C1CCN(*)CC1; Pra = C#CC[C@H](N)C(=O)O; dNMeA = CN[C@H](C)C(=O)O; Ac5c = NC1(C(=O)O)CCCC1; Aze = O=C(O)[C@@H]1CCN1; CH2CMe2OH = CC(C)(O)C*; Aib = CC(C)(N)C(=O)O; Isopentyl = CC(C)CC*; NEtG = CCNCC(=O)O; Sar = CNCC(=O)O
Molecular target: T1, Kras and SOS1 (biotin-tagged human Kras loaded with GDP, His-tagged human SOS1) (Homo sapiens, UniProt P01116, G12D)
T1 construct: made in house; host or cells: E. coli (stated for Kras only)
T1 sequence (P01116 1-188 isoform P01116-2 G12D): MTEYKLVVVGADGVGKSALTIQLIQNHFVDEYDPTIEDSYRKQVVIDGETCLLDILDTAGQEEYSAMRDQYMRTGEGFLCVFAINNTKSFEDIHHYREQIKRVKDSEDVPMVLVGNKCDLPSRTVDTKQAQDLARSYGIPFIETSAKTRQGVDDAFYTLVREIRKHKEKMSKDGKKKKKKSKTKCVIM
Assay: Protein-protein interaction inhibition between Kras and SOS1 (KrasGl2D-SOS PPI) using AlphaScreen
Assay type: binding
Conditions: AlphaScreen; biotin-tagged human Kras loaded with GDP, His-tagged human SOS1; read-out: KRAS G12D-SOS PPI IC50
How it was run: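 Energy transfer from nickel-chelate donor beads bound to His-SOS1 to streptavidin acceptor beads bound to biotin-Kras, expressed in E. coli and loaded with GDP after purification, was monitored. Donors were excited at 680 nm; singlet oxygen reaching acceptors gave emission read at 520-620 nm.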

Structure (SMILES) | IC50 [nM]
CC[C@H](C)[C@@H]1NC(=O)[C@H](C)N(C)C(=O)C[C@@H](C)NC(=O)[C@H](C2CCCC2)N(C)C(=O)C2(CCCC2)NC(=O)[C@@H]2CCCN2C(=O)[C@H](CCc2ccc(C(F)(F)F)c(Cl)c2)NC(=O)[C@@H](C)N(C)C(=O)[C@H](Cc2ccc(C(F)(F)F)cc2)N(C)C(=O)[C@@H]2CCN2C(=O)CN(C)C1=O [Compound 1507] (cyclo([Ac5c][NMeGly(cPent)][d(β3hA)][NMeA]I[Sar][Aze][NMePhe(4-CF3)][dNMeA][hPhe(3-Cl-4-CF3)]P)) | 24
CC[C@H](C)[C@@H]1NC(=O)[C@H](CC(C)C)N(C)C(=O)C[C@@H](C)NC(=O)[C@H](CC(C)C)N(C)C(=O)C2(CCCC2)NC(=O)[C@@H]2CC(F)(F)CN2C(=O)[C@H](CCc2ccc(C(F)(F)F)c(F)c2)NC(=O)CN(C)C(=O)[C@H](CC2CCCCC2)N(C)C(=O)CN(C)C(=O)CN(C)C1=O [Compound 1509] (cyclo([Ac5c][NMeL][d(β3hA)][NMeL]I[Sar][Sar][NMeCha][Sar][hPhe(3-F,4-CF3)][Pro(4,4-F2)])) | 23
CC[C@H](C)[C@@H]1NC(=O)[C@H](C)N(C)C(=O)C[C@@H](C)NC(=O)[C@H](C2CCCC2)N(C)C(=O)C2(CCCC2)NC(=O)[C@@H]2CCCN2C(=O)[C@H](CCc2ccc(C(F)(F)F)c(Cl)c2)NC(=O)[C@@H](C)N(C)C(=O)[C@H](CC2CCCCC2)N(C)C(=O)[C@@H]2CCN2C(=O)[C@H](C)N(C)C1=O [Compound 1510] (cyclo([Ac5c][NMeGly(cPent)][d(β3hA)][NMeA]I[NMeA][Aze][NMeCha][dNMeA][hPhe(3-Cl-4-CF3)]P)) | 110
CC[C@H](C)[C@@H]1NC(=O)[C@H](CC(C)C)N(C)C(=O)C[C@@H](C)NC(=O)[C@H](CC(C)C)N(C)C(=O)C(C)(C)NC(=O)[C@H](COCC(=O)NC(C)(C)C)N(C)C(=O)[C@H](CCc2ccc(C(F)(F)F)c(Cl)c2)NC(=O)CN(C)C(=O)[C@H](COCCC(C)C)N(C)C(=O)[C@@H]2CCN2C(=O)CN(CC)C1=O [Compound 1513] (cyclo([Aib][NMeL][d(β3hA)][NMeL]I[NEtG][Aze][NMeS](Isopentyl)[Sar][hPhe(3-Cl-4-CF3)][NMeS](CH2CONHtBu))) | 270
CC[C@H](C)[C@@H]1NC(=O)[C@H](CC(C)C)N(C)C(=O)C[C@@H](C)NC(=O)[C@H](CC(C)C)N(C)C(=O)C2(CCCC2)NC(=O)[C@@H]2CCCN2C(=O)[C@H](CCc2ccc(C(F)(F)F)c(F)c2)NC(=O)CN(C)C(=O)[C@H](CCCCC(F)F)N(C)C(=O)CN(C)C(=O)CN(C)C1=O [Compound 1515] (cyclo([Ac5c][NMeL][d(β3hA)][NMeL]I[Sar][Sar][NMeNle(6-CHF2)][Sar][hPhe(3-F,4-CF3)]P)) | 77
CCCC[C@H]1C(=O)N[C@H](C)CC(=O)N(C)[C@@H](CC(C)C)C(=O)N[C@@H]([C@@H](C)CC)C(=O)N(C)CC(=O)N(C)CC(=O)N(C)[C@@H](CC2CCCCC2)C(=O)N(C)CC(=O)N[C@@H](CCc2ccc(C(F)(F)F)c(F)c2)C(=O)N2CCC[C@H]2C(=O)NC2(CCCC2)C(=O)N1C [Compound 1518] (cyclo([Ac5c][NMeNle][d(β3hA)][NMeL]I[Sar][Sar][NMeCha][Sar][hPhe(3-F,4-CF3)]P)) | 370
CC[C@H](C)[C@@H]1NC(=O)[C@H](C)N(C)C(=O)C[C@@H](C)NC(=O)[C@H](C2CCCC2)N(C)C(=O)C2(CCCC2)NC(=O)[C@@H]2CCCN2C(=O)[C@H](CCc2ccc(C(F)(F)F)c(Cl)c2)NC(=O)[C@@H](C)N(C)C(=O)[C@H](Cc2ccc(C(F)(F)F)cc2)N(C)C(=O)CN(C)C(=O)CN(C)C1=O [Compound 1520] (cyclo([Ac5c][NMeGly(cPent)][d(β3hA)][NMeA]I[Sar][Sar][NMePhe(4-CF3)][dNMeA][hPhe(3-Cl-4-CF3)]P)) | 59
CC[C@H](C)[C@@H]1NC(=O)[C@H](CC(C)C)N(C)C(=O)C[C@@H](C)NC(=O)[C@H](C2CCCC2)N(C)C(=O)C2(CCCC2)NC(=O)[C@@H]2CCCN2C(=O)[C@H](CCc2ccc(C(F)(F)F)c(Cl)c2)NC(=O)[C@@H](C)N(C)C(=O)[C@H](Cc2ccc(C)cc2)N(C)C(=O)CN(C)C(=O)CN(C)C1=O [Compound 1521] (cyclo([Ac5c][NMeGly(cPent)][d(β3hA)][NMeL]I[Sar][Sar][NMePhe(4-Me)][dNMeA][hPhe(3-Cl-4-CF3)]P)) | 110
CC[C@H](C)[C@@H]1NC(=O)[C@H](C)N(C)C(=O)C[C@@H](C)NC(=O)[C@H](C2CCCC2)N(C)C(=O)C2(CCCC2)NC(=O)[C@@H]2CCCN2C(=O)[C@H](CCc2ccc(C(F)(F)F)c(Cl)c2)NC(=O)[C@H]2CCCN2C(=O)[C@H](Cc2ccc(C(F)(F)F)cc2)N(C)C(=O)[C@@H]2CCN2C(=O)CN(C)C1=O [Compound 1522] (cyclo([Ac5c][NMeGly(cPent)][d(β3hA)][NMeA]I[Sar][Aze][NMePhe(4-CF3)][dP][hPhe(3-Cl-4-CF3)]P)) | 90
CC[C@H](C)[C@@H]1NC(=O)[C@H](CC(C)C)N(C)C(=O)C[C@@H](C)NC(=O)[C@H](CC(C)C)N(C)C(=O)C(C)(C)NC(=O)[C@H](CC(C)C)N(C)C(=O)[C@H](CCc2ccc(C(F)(F)F)c(F)c2)NC(=O)CN(C)C(=O)[C@H](CCCCC(F)F)N(C)C(=O)CN(C)C(=O)CN(C)C1=O [Compound 1526] (cyclo([Aib][NMeL][d(β3hA)][NMeL]I[Sar][Sar][NMeNle(6-CHF2)][Sar][hPhe(3-F,4-CF3)][NMeL])) | 100
CC(C)C[C@H]1C(=O)N[C@@H](C2CCCCC2)C(=O)N(C)CC(=O)N(C)CC(=O)N(C)[C@@H](CC2CCCCC2)C(=O)N(C)CC(=O)N[C@@H](CCc2ccc(C(F)(F)F)c(F)c2)C(=O)N2CCC[C@H]2C(=O)NC2(CCCC2)C(=O)N(C)[C@@H](CC(C)C)C(=O)N[C@H](C)CC(=O)N1C [Compound 1527] (cyclo([Ac5c][NMeL][d(β3hA)][NMeL][Chg][Sar][Sar][NMeCha][Sar][hPhe(3-F,4-CF3)]P)) | 190
CC[C@H](C)[C@@H]1NC(=O)[C@H](CC(C)C)N(C)C(=O)C[C@@H](C(=O)N2CCCCC2)N(C)C(=O)[C@H](CC(C)C)N(C)C(=O)C(C)(C)NC(=O)[C@H](COCC(C)(C)O)N(C)C(=O)[C@H](CCc2ccc(C(F)(F)F)cc2)NC(=O)CN(C)C(=O)[C@H](COCCC(C)C)N(C)C(=O)CN(C)C(=O)CN(CC)C1=O [Compound 1528] ([NMeL]I[NEtG][Sar][NMeS](Isopentyl)[Sar][hPhe(4-CF3)][NMeS](CH2CMe2OH)[Aib][NMeL][NMeD]-Piperidide; lactam N-11) | 41
CC[C@H](C)[C@@H]1NC(=O)[C@H](CC(C)C)N(C)C(=O)C[C@@H](C)NC(=O)[C@H](C2CCCC2)N(C)C(=O)C2(CCCC2)NC(=O)[C@@H]2CCCN2C(=O)[C@H](CCc2ccc(C(F)(F)F)c(Cl)c2)NC(=O)[C@@H](C)N(C)C(=O)[C@H](CC2CCCCC2)N(C)C(=O)CN(C)C(=O)CN(C)C1=O [Compound 1530] (cyclo([Ac5c][NMeGly(cPent)][d(β3hA)][NMeL]I[Sar][Sar][NMeCha][dNMeA][hPhe(3-Cl-4-CF3)]P)) | 130
CC[C@H](C)[C@@H]1NC(=O)[C@H](CC(C)C)N(C)C(=O)C[C@@H](C(=O)N2CCCCC2)N(C)C(=O)[C@H](CC(C)C)N(C)C(=O)C(C)(C)NC(=O)[C@H](COCC(C)(C)O)N(C)C(=O)[C@H](CCc2ccc(C(F)(F)F)c(F)c2)NC(=O)CN(C)C(=O)[C@H](COCCC(C)C)N(C)C(=O)CN(C)C(=O)CN(C)C1=O [Compound 1532] ([NMeL]I[Sar][Sar][NMeS](Isopentyl)[Sar][hPhe(3-F,4-CF3)][NMeS](CH2CMe2OH)[Aib][NMeL][NMeD]-Piperidide; lactam N-11) | 4.8
C#CC[C@@H]1NC(=O)[C@H](CC(C)C)N(C)C(=O)C[C@@H](C)NC(=O)[C@H](CC(C)C)N(C)C(=O)C2(CCCC2)NC(=O)[C@@H]2CCCN2C(=O)[C@H](CCc2ccc(C(F)(F)F)c(F)c2)NC(=O)CN(C)C(=O)[C@H](CC2CCCCC2)N(C)C(=O)CN(C)C(=O)CN(C)C1=O [Compound 1533] (cyclo([Ac5c][NMeL][d(β3hA)][NMeL][Pra][Sar][Sar][NMeCha][Sar][hPhe(3-F,4-CF3)]P)) | 68
CC[C@H](C)[C@@H]1NC(=O)[C@H](CC(C)C)N(C)C(=O)C[C@@H](C)NC(=O)[C@H](C(C)C)N(C)C(=O)C2(CCCC2)NC(=O)[C@@H]2CCCN2C(=O)[C@H](CCc2ccc(C(F)(F)F)c(F)c2)NC(=O)CN(C)C(=O)[C@H](CC2CCCCC2)N(C)C(=O)CN(C)C(=O)CN(C)C1=O [Compound 1534] (cyclo([Ac5c][NMeV][d(β3hA)][NMeL]I[Sar][Sar][NMeCha][Sar][hPhe(3-F,4-CF3)]P)) | 62
CC[C@H](C)[C@@H]1NC(=O)[C@H](C)N(C)C(=O)C[C@@H](C)NC(=O)[C@H](C2CCCC2)N(C)C(=O)C2(CCCC2)NC(=O)[C@@H]2CCCN2C(=O)[C@H](CCc2ccc(C(F)(F)F)c(Cl)c2)NC(=O)[C@@H](C)N(C)C(=O)[C@H](CC2CCCCC2)N(C)C(=O)CN(C)C(=O)CN(C)C1=O [Compound 1535] (cyclo([Ac5c][NMeGly(cPent)][d(β3hA)][NMeA]I[Sar][Sar][NMeCha][dNMeA][hPhe(3-Cl-4-CF3)]P)) | 41
CC[C@H](C)[C@@H]1NC(=O)[C@H](C)N(C)C(=O)C[C@@H](C)NC(=O)[C@H](C2CCCC2)N(C)C(=O)C2(CCCC2)NC(=O)[C@@H]2CCCN2C(=O)[C@H](CCc2ccc(C(F)(F)F)c(Cl)c2)NC(=O)[C@H]2CCCN2C(=O)[C@H](Cc2ccc(C)cc2)N(C)C(=O)[C@@H]2CCN2C(=O)[C@H](C)N(C)C1=O [Compound 1540] (cyclo([Ac5c][NMeGly(cPent)][d(β3hA)][NMeA]I[NMeA][Aze][NMePhe(4-Me)][dP][hPhe(3-Cl-4-CF3)]P)) | 230
CC[C@H](C)[C@@H]1NC(=O)[C@H](CC(C)C)N(C)C(=O)C[C@@H](C(=O)N2CCCCC2)N(C)C(=O)[C@H](CC(C)C)N(C)C(=O)C(C)(C)NC(=O)[C@H](COCC(C)(C)O)N(C)C(=O)[C@H](CCc2ccc(C(F)(F)F)c(Cl)c2)NC(=O)CN(C)C(=O)[C@H](COCCC(C)C)N(C)C(=O)CN(C)C(=O)CN(C)C1=O [Compound 1541] ([NMeL]I[Sar][Sar][NMeS](Isopentyl)[Sar][hPhe(3-Cl-4-CF3)][NMeS](CH2CMe2OH)[Aib][NMeL][NMeD]-Piperidide; lactam N-11) | 4
